Reference: article PMC6225228, “Design, Synthesis and Evaluation of N-pyrazinylbenzamides as Potential Antimycobacterial Agents” (Molecules : A Journal of Synthetic Chemistry and Natural …, 2018)
Converted amounts (≈) assume the structure as drawn. Where two headings read alike, the source gives them in different places.

Experiments:
[1] = tested on: M. avium ssp. avium CNCTC My 80/72 (ATCC 15769); experiment: Antimycobacterial microdilution MABA, M. avium; format: cell-based, Mycobacterium avium; conditions: Mycobacterium avium, ATCC15769, pH 6.6, read-out: M. avium ATCC 15769 MIC
[2] = tested on: Mycobacterium smegmatis CCM 4622 (ATCC 607); experiment: Antimycobacterial microdilution, M. smegmatis; format: cell-based; conditions: Mycolicibacterium smegmatis, read-out: M. smeg. ATCC 607 MIC
[3] = tested on: Candida albicans ATCC 44859; experiment: Antifungal microdilution broth, CA; format: cell-based; conditions: Candida albicans, read-out: MIC CA
[4] = tested on: Enterococcus sp. J 14365/08; experiment: Antibacterial microdilution broth, EF; format: cell-based; conditions: Enterococcus, read-out: MIC EF
[5] = tested on: Aspergillus fumigatus 231; experiment: Antifungal microdilution broth, AF; format: cell-based; conditions: read-out: MIC AF
[6] = tested on: Escherichia coli CCM 4517; experiment: Antibacterial microdilution broth, EC; format: cell-based; conditions: Escherichia coli, read-out: MIC EC
[7] = tested on: Candida krusei E28; experiment: Antifungal microdilution broth, CK; format: cell-based; conditions: Pichia kudriavzevii, read-out: MIC CK
[8] = tested on: Candida glabrata 20/I; experiment: Antifungal microdilution broth, CG; format: cell-based; conditions: Nakaseomyces glabratus, 20/I, read-out: MIC CG
[9] = tested on: Pseudomonas aeruginosa CCM 1961; experiment: Antibacterial microdilution broth, PA; format: cell-based; conditions: Pseudomonas aeruginosa, read-out: MIC PA
[10] = tested on: Trichosporon asahii 1188; experiment: Antifungal microdilution broth, TA; format: cell-based; conditions: read-out: MIC TA
[11] = tested on: M. kansasii CNCTC My 235/80 (ATCC 12478); experiment: Antimycobacterial microdilution MABA, M. kansasii; format: cell-based, Mycobacterium kansasii; conditions: Mycobacterium kansasii, ATCC12478, pH 6.6, read-out: M. kans. ATCC 12478 MIC, Middlebrook 7H9 with OADC, pH 6.6, MABA
[12] = tested on: Staphylococcus aureus CCM 4516/08; experiment: Antibacterial microdilution broth, SA; format: cell-based
[13] = tested on: Staphylococcus epidermidis H 6966/08; experiment: Antibacterial microdilution broth, SE; format: cell-based; conditions: read-out: MIC SE
[14] = tested on: Staphylococcus aureus H 5996/08 methicillin resistant; experiment: microbe, parasite or virus in culture; format: cell-based; conditions: for MIC: Staphylococcus aureus, MRSA, read-out: MIC MRSA
[15] = tested on: Mycobacterium tuberculosis H37Rv CNCTC My 331/88 (ATCC 27294); experiment: Antimycobacterial microdilution MABA, M. tuberculosis; format: cell-based; conditions: for Mtb H37Rv ATCC 27294 MIC: Middlebrook 7H9 with OADC growth supplement, pH = 6.6, MABA; for MIC: Mycobacterium tuberculosis, read-out: Mtb H37Rv ATCC 27294 MIC, Middlebrook 7H9 with OADC growth supplement, pH = 6.6, MABA
[16] = tested on: Trichophyton interdigitale 445; experiment: Antifungal microdilution broth, TI; format: cell-based; conditions: read-out: MIC TI
[17] = tested on: Lichtheimia corymbifera 272; experiment: Antifungal microdilution broth, LC; format: cell-based; conditions: read-out: MIC LC
[18] = tested on: Candida tropicalis 156; experiment: Antifungal microdilution broth, CT; format: cell-based; conditions: read-out: MIC CT
[19] = Aspergillus fumigatus, 231, 24 h
[20] = Aspergillus fumigatus, 231, 48 h
[21] = Trichosporon asahii, 1188, 24 h
[22] = Trichosporon asahii, 1188, 48 h
[23] = Staphylococcus aureus, CCM4516, 24 h, read-out: MIC SA, 24 h
[24] = Staphylococcus aureus, CCM4516, 48 h, read-out: MIC SA, 48 h
[25] = Staphylococcus epidermidis, H6966/08, 24 h
[26] = Staphylococcus epidermidis, H6966/08, 48 h
[27] = Trichophyton interdigitale, 445, 72 h
[28] = Trichophyton interdigitale, 445, 120 h
[29] = Lichtheimia corymbifera, 272, 24 h
[30] = Lichtheimia corymbifera, 272, 48 h

Row | Structure (SMILES) | MIC [1] [µg/mL] | MIC [2] [µg/mL] | MIC ([3]; ATCC44859, 24 h) [µM] | MIC ([3]; ATCC44859, 48 h) [µM] | MIC ([4]; SP.J14365/08, 24 h) [µM] | MIC ([4]; SP.J14365/08, 48 h) [µM] | MIC [5, 19] [µM] | MIC [5, 20] [µM] | MIC ([6]; CCM4517, 24 h) [µM] | MIC ([6]; CCM4517, 48 h) [µM] | MIC ([7]; E28, 24 h) [µM] | MIC ([7]; E28, 48 h) [µM] | MIC ([8]; 24 h) [µM] | MIC ([8]; 48 h) [µM] | MIC ([9]; CCM1961, 72 h) [µM] | MIC ([9]; CCM1961, 120 h) [µM] | MIC [10, 21] [µM] | MIC [10, 22] [µM] | MIC [11] [µg/mL] | MIC [12, 23] [µM] | further results
1 | O=C(Nc1cnccn1)c1cccc(C(F)(F)F)c1 [Compound 1n] | > 100 | ≥ 500 | > 125 | > 125 | > 125 | > 125 | > 125 | > 125 | > 125 | > 125 | > 125 | > 125 | > 125 | > 125 | > 125 | > 125 | > 125 | > 125 | > 100 | > 125 | MIC ([12]; 24 h, read-out: MIC SA): >125 µM; MIC ([12]; 48 h, read-out: MIC SA): >125 µM; MIC [12, 24]: > 125 µM; MIC ([13]; 24 h): 62.50 µM (≈ 16.7 µg/mL); MIC ([13]; 48 h): 62.50 µM (≈ 16.7 µg/mL); MIC [13, 25]: 62.5 µM (≈ 16.7 µg/mL); MIC [13, 26]: 62.5 µM (≈ 16.7 µg/mL); MIC MRSA ([14]; 24 h): >125 µM; MIC MRSA ([14]; 48 h): >125 µM; MIC ([14]; 24 h): > 125 µM; MIC ([14]; 48 h): > 125 µM; Mtb H37Rv ATCC 27294 MIC [15]: >100 µg/mL; MIC [15]: > 100 µg/mL; MIC [16, 27]: > 125 µM; MIC [16, 28]: > 125 µM; MIC [17, 29]: > 125 µM; MIC [17, 30]: > 125 µM; MIC ([18]; Candida tropicalis, 156, 24 h): > 125 µM; MIC ([18]; Candida tropicalis, 156, 48 h): > 125 µM
2 | COc1cccc(C(=O)Nc2cnc(Cl)cn2)c1 [Compound 2f] | > 100 | ≥ 500 | 125 (≈ 33 µg/mL) | 500 (≈ 132 µg/mL) | > 500 | > 500 | > 500 | > 500 | > 500 | > 500 | > 500 | > 500 | > 500 | > 500 | > 500 | > 500 | > 500 | > 500 | > 100 | 31.2 (≈ 8.24 µg/mL) | MIC [12, 24]: 31.2 µM (≈ 8.24 µg/mL); MIC ([13]; 24 h): >500 µM; MIC ([13]; 48 h): >500 µM; MIC [13, 25]: > 500 µM; MIC [13, 26]: > 500 µM; MIC MRSA ([14]; 24 h): >500 µM; MIC MRSA ([14]; 48 h): >500 µM; MIC ([14]; 24 h): > 500 µM; MIC ([14]; 48 h): > 500 µM; MIC [15]: > 100 µg/mL; MIC [16, 27]: > 500 µM; MIC [16, 28]: > 500 µM; MIC [17, 29]: > 500 µM; MIC [17, 30]: > 500 µM; MIC ([18]; Candida tropicalis, 156, 24 h): > 500 µM; MIC ([18]; Candida tropicalis, 156, 48 h): > 500 µM
3 | O=C(Nc1cncc(Cl)n1)c1ccccc1Cl [Compound 3j] | > 100 | ≥ 500 | > 500 | > 500 | > 500 | > 500 | > 500 | > 500 | > 500 | > 500 | > 500 | > 500 | > 500 | > 500 | > 500 | > 500 | > 500 | > 500 | > 100 | > 500 | MIC [12, 24]: > 500 µM; MIC [13, 25]: > 500 µM; MIC [13, 26]: > 500 µM; MIC ([14]; 24 h): > 500 µM; MIC ([14]; 48 h): > 500 µM; Mtb H37Rv ATCC 27294 MIC [15]: >100 µg/mL; MIC [15]: > 100 µg/mL; MIC [16, 27]: > 500 µM; MIC [16, 28]: > 500 µM; MIC [17, 29]: > 500 µM; MIC [17, 30]: > 500 µM; MIC ([18]; Candida tropicalis, 156, 24 h): > 500 µM; MIC ([18]; Candida tropicalis, 156, 48 h): > 500 µM
4 | O=C(Nc1cnc(Cl)cn1)c1ccccc1Cl [Compound 2j] | > 100 | ≥ 500 | > 500 | > 500 | > 500 | > 500 | > 500 | > 500 | > 500 | > 500 | > 500 | > 500 | > 500 | > 500 | > 500 | > 500 | > 500 | > 500 | > 100 | 62.5 (≈ 16.8 µg/mL) | MIC ([12]; 24 h, read-out: MIC SA): 62.50 µM (≈ 16.8 µg/mL); MIC ([12]; 48 h, read-out: MIC SA): 62.50 µM (≈ 16.8 µg/mL); MIC [12, 24]: 62.5 µM (≈ 16.8 µg/mL); MIC ([13]; 24 h): >500 µM; MIC ([13]; 48 h): >500 µM; MIC [13, 25]: > 500 µM; MIC [13, 26]: > 500 µM; MIC MRSA ([14]; 24 h): >500 µM; MIC MRSA ([14]; 48 h): >500 µM; MIC ([14]; 24 h): > 500 µM; MIC ([14]; 48 h): > 500 µM; Mtb H37Rv ATCC 27294 MIC [15]: >100 µg/mL; MIC [15]: > 100 µg/mL; MIC [16, 27]: > 500 µM; MIC [16, 28]: > 500 µM; MIC [17, 29]: > 500 µM; MIC [17, 30]: > 500 µM; MIC ([18]; Candida tropicalis, 156, 24 h): > 500 µM; MIC ([18]; Candida tropicalis, 156, 48 h): > 500 µM
